The values that follow come from PubChem BioAssay (NCI).

What all share (assay): DTP human tumour cell line panel, 48 h
Assay [1] has as its system CCRF-CEM leukemia.
In assay [2] the test system is SN12C renal.
The subject of assay [3] is UACC-62 melanoma.
Assay [4] deals with COLO 205 colon.
The subject of assay [5] is T-47D breast.
Assay [6] has as its system RPMI-8226 leukemia.
The test system of assay [7] is OVCAR-3 ovarian.
The test system of assay [8] is SK-OV-3 ovarian.
The test system of assay [9] is MCF7 breast.
Assay [10] relates to SW-620 colon.

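In this assay, cells in 96-well plates receive the compound at five concentrations for 48 hours. Endpoints are linearly interpolated between the surrounding concentrations. GI50 is the concentration that inhibits growth by half. TGI marks complete inhibition of growth.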

In general, TGI refers to the concentration at which net growth stops. Low readings indicate greater sensitivity of the cells, high ones lower sensitivity of the cells. Consider `C[C@]12CCC(=O)C=C1CC[C@@H]1[C@@H]2[C@@H](O)C[C@@]2(C)[C@H]1CC[C@]2(O)C(=O)COC(=O)C1CCCC1`, for which the TGI in assay [1], in assay [2], in [3], in assay [4], in assay [5] and in assay [6] was more than 100 µM each time. In addition, the TGI in [7], in [8], in [9] and in assay [10] was more than 100 µM in each case.

On to `O=S(O)c1cc(Cl)cc(Cl)c1OCc1ccccc1`, for which the TGI in [1], in [2], in assay [3], in assay [7] and in assay [8] was more than 100 µM throughout.

Regarding `Cc1ccc(SSCCCCCS(=O)O)cc1`, the TGI in assay [1] was more than 100 µM; in [2], 49 µM; in assay [3], 49.5 µM; in assay [6] it was 71.4 µM; in assay [7], 74.7 µM; in [8] it was more than 100 µM.

For the compound `CC(=O)C1=C(O)CCC1=O`, the TGI in assay [1], in assay [2], in assay [3], in assay [4], in assay [5] and in assay [6] was more than 100 µM each time. Also, the TGI in assay [7], in [8], in assay [9] and in assay [10] was more than 100 µM each time.

Broadly, the GI50 is the concentration that inhibits growth by half. For `COc1ccc2nc3ccccc3c(NCc3ccc(C)cc3)c2c1`, the GI50 in [1] was 2.37 µM; in [2], 1.64 µM; in assay [3] it was 1.64 µM; in assay [4], 1.65 µM; in [5] it was 1.89 µM; in [7] it was 2 µM. Also, the GI50 was 2.58 µM in [8] and 1.57 µM in assay [10]. Besides, the TGI in [1] worked out at 11.4 µM; in [2] it was 3.78 µM; in assay [3], 3.26 µM; in [4], 3.78 µM; in assay [5] it was 4.42 µM; in [7] it was 4.36 µM. Besides, the TGI in assay [8] is 8.41 µM; in [10] it was 4.24 µM.

Consider `Clc1ccc(-c2nnc(-c3c(Cl)c(Cl)c(Cl)c(Cl)c3-c3nc4ccccc4[nH]3)o2)cc1`, for which the TGI in assay [1], in [2], in assay [3], in assay [4], in [5] and in [6] was more than 100 µM each time. Moreover, the TGI in assay [7], in assay [8], in assay [9] and in assay [10] was more than 100 µM each time.

In the case of `COc1cc2c(cc1OC)-c1cc3ccc(OC)c(OC)c3c[n+]1CC2`, the total growth inhibition concentration (TGI) in assay [1], in assay [2], in [3], in assay [4], in [5] and in assay [6] was more than 100 µM each time. Further, the TGI in assay [7], in assay [8], in assay [9] and in assay [10] was more than 100 µM in each case.

For the compound `C[N+](C)(CCO)CCN1c2ccccc2Sc2ccccc21`, the total growth inhibition concentration (TGI) in [1], in assay [2], in [3], in assay [4], in assay [5] and in assay [6] was more than 10 µM throughout. The TGI in assay [7], in assay [8], in assay [9] and in assay [10] was more than 10 µM throughout.

`Fc1c(F)c(C(F)(F)F)c(F)c(F)c1N/N=C/c1cn(Cc2ccccc2)c2ccccc12`: the TGI in [1] was 48.4 µM; in assay [2] it was 92 µM; in [3], 61.5 µM; in assay [4] it was 26.8 µM; in assay [5], 83.6 µM; in assay [6] it was 62.7 µM. For the same compound, the TGI in assay [7] is 36.6 µM; in [8], 48.4 µM; in [9], 69.5 µM; in assay [10], more than 100 µM.

`COc1ccc2c(c1)CC[C@@H]1[C@@H]2CC[C@]2(C)C(=O)/C(=C/c3ccc(O)c(OC)c3)C[C@@H]12`: the TGI in assay [1], in [3], in assay [4], in [5], in assay [6] and in [7] was more than 100 µM throughout. For the same compound, the TGI in assay [8], in assay [9] and in [10] was more than 100 µM in each case.

Turning to `COc1ccc(C2C(C=O)C(N3CCN(C)CC3)=Nc3nc4ccccc4n32)cc1` (stereo not drawn), the TGI in assay [1] is 17.8 µM; in [2] it was 40.9 µM; in assay [3] it was 36.5 µM; in assay [4], 36 µM; in assay [5] it was 40.6 µM; in assay [6], 17.3 µM. The figures for the TGI in [7], in [9] and in [10] were 40.5 µM, 36.3 µM and 65.9 µM, respectively.

`O=C1C[C@H](CCC(=O)OCc2ccccc2)NC(=O)C[C@H](CCC(=O)OCc2ccccc2)NC(=O)C[C@H](CCC(=O)OCc2ccccc2)N1`: the TGI in assay [1], in [2], in assay [3], in assay [4], in assay [5] and in assay [6] was more than 100 µM in each case. The total growth inhibition concentration (TGI) in assay [7] is more than 100 µM; in assay [8], 29 µM; in assay [9] it was more than 100 µM; in assay [10] it was more than 100 µM.

For the compound `COc1cc2c(cc1OCCCN1CCN(c3ncnc4ccccc34)CC1)N=CC1CCCN1C2=O` (stereo not drawn), the GI50 was less than 0.0146 µM in assay [1]; 0.0374 µM in [2]; 0.018 µM in assay [3]; 0.0203 µM in assay [4]; 0.0222 µM in assay [5]; less than 0.0119 µM in [6]. For the same compound, the GI50 in assay [7] is 0.0269 µM; in assay [8], 0.0326 µM; in assay [9], 0.0189 µM; in assay [10] it was 0.0198 µM. Also, the TGI in assay [1] is 0.48 µM; in [2], 3.97 µM; in [3], 0.0379 µM; in assay [4], 0.0446 µM; in assay [5] it was 0.0757 µM; in [6], 0.0353 µM. The TGI in assay [7] was 0.0595 µM; in assay [8] it was 6.78 µM; in assay [9], 1.02 µM; in [10] it was 0.0556 µM.

With `O=c1/c(=C/c2ccc([N+](=O)[O-])o2)sc2n1[C@@H](c1ccc3c(c1)OCO3)C=C(c1cc(F)c(Cl)cc1Cl)N=2`, the TGI in assay [1] is 10.5 µM; in [2] it was 56.7 µM; in assay [3] it was 34 µM; in assay [4], 71.4 µM; in [5], 59.3 µM; in assay [6] it was more than 100 µM. Also, the TGI in assay [7] is 35.3 µM; in assay [8], more than 100 µM; in [9], 32.4 µM; in assay [10] it was more than 100 µM.

For the compound `N#C[S-].[Ce+3].c1cnc2c(c1)ccc1cccnc12.c1cnc2c(c1)ccc1cccnc12.c1cnc2c(c1)ccc1cccnc12`, the TGI in [2] was 13.1 µM; in assay [3], 10.1 µM; in assay [4], 13.4 µM; in [6], more than 100 µM; in assay [7], 14.9 µM; in assay [8], 13.5 µM. The compound further came in with a TGI in [10] of 46.8 µM.

Take `NC(CC(=O)O)(Cc1ccccc1)C(=O)O` (stereo not drawn): the TGI in assay [1], in assay [2], in assay [3], in assay [4], in assay [5] and in [6] was more than 100 µM throughout. The TGI in assay [7], in assay [8], in [9] and in assay [10] was more than 100 µM each time.

For `Cn1c(=O)c2c(nc(NCCNc3nc4c(c(=O)n(C)c(=O)n4C)n3C)n2C)n(C)c1=O`, the TGI in [1], in assay [2], in [3], in [5], in assay [7] and in assay [10] was more than 100 µM each time.
